In PMC5107132 (European journal of pharmacology, 2016):
Marks after values point to notes of the source that are not given here.

System: Wistar rats
Assay: Rotarod test
Format: in vivo, rat
Conditions: 15 mg/kg MP-III-022 in combination with 15 mg/kg flumazenil (FLU), i.p.

C#Cc1ccc2c(c1)C(c1ccccc1F)=N[C@H](C)c1c(C(=O)NC)ncn1-2 [MP-III-022, (R)-8-Ethynyl-6-(2-fluorophenyl)-N,4-dimethyl-4H-benzo[f]imidazo[1,5-a][1,4]diazepine-3-carboxamide]
Rotarod, time remaining on the rod revolving at 15 rpm: 175.17 ± 4.83^a,d s
